A short description of assay [1]: The compound was tested for its minimal cytotoxic concentration required to alter microscopically detectable cell morphology. The assay is classed as functional.
Assay [2] has as its system Human alphaherpesvirus 3. The experiment in a line: The compound was tested for its effective concentration required to reduce virus plaque formation by using Varicella-Zoster virus OKA strain. The assay is classed as functional, organism-based.
For assay [3], the system named is Human alphaherpesvirus 3. The experiment in a line: The compound was tested for its effective concentration required to reduce virus plaque formation by using Varicella-Zoster virus YS strain. The assay is classed as functional, organism-based.
In assay [4] the test system is Human alphaherpesvirus 3. In words: The compound was tested for its effective concentration required to reduce virus plaque formation by using TK (thymidine kinase -deficient)-Varicella-Zoster virus 07/1 strain. In kind it is functional, organism-based.
In assay [5] the test system is Human alphaherpesvirus 3. The experiment in a line: The compound was tested for its effective concentration required to reduce virus plaque formation by using TK (thymidine kinase -deficient) -Varicella-Zoster virus YS/R strain. The assay is classed as functional, organism-based.
Assay [6] concerns HEL. In words: The compound was tested for cytotoxic concentration required to inhibit Hel cell growth by 50%. The assay is classed as functional. The note with it: Homo sapiens.
Assay [7] deals with Human alphaherpesvirus 2. The experiment in a line: Compound was tested (in vitro) against Herpes simplex virus-2. The assay is classed as functional, organism-based.
Assay [8] has as its system Human immunodeficiency virus 1. The experiment in a line: In vitro activity of compound against HIV-1; Not active. The assay is classed as functional, organism-based.
Assay [9] relates to Cytomegalovirus. In words: Compound was tested (in vitro) against Cytomegalovirus virus or HIV-1. In kind it is functional, organism-based.
In assay [10] the test system is Cytomegalovirus. In words: Compound was tested (in vitro) against Cytomegalovirus virus or HIV-1; Not active. The assay is classed as functional, organism-based.
Assay [11] concerns Human alphaherpesvirus 2. The experiment in a line: Compound was tested (in vitro) against Herpes simplex virus-2; Not active. In kind it is functional, organism-based.
Assay [12] has as its system Human alphaherpesvirus 1. In words: In vitro activity against Herpes simplex virus-1; Not active. The assay is classed as functional, organism-based.
In assay [13] the test system is Human alphaherpesvirus 2. The experiment in a line: In vitro activity against Herpes simplex virus-2. In kind it is functional, organism-based.
Assay [14] concerns Cytomegalovirus. The experiment in a line: In vitro activity against Cytomegalovirus virus. The assay is classed as functional, organism-based.
In assay [15] the test system is Human alphaherpesvirus 3. The experiment in a line: The compound was tested for its effective concentration required to reduce virus plaque formation by using TK- (thymidine kinase -deficient)-Varicella-Zoster virus 07/1 strain. In kind it is functional, organism-based.

Experimental findings from ChEMBL document CHEMBL1132902, “Bicyclic nucleoside inhibitors of Varicella-Zoster Virus (VZV): the effect of a terminal halogen substitution in the side-chain” (Bioorg Med Chem Lett, 2000) are described below.

pEC50: −log10 of the molar value. Activity calls are given as the source filed them. The rule behind the calls is not given here.

Broadly, the pEC50 is the EC50 on a negative log10 scale, so that one unit is a factor of ten. Low readings indicate a high EC50, high ones a low EC50. A word on the CC50: it is the concentration at which the toxic effect on the cells reaches its halfway point. As for `O=c1[nH]c(=O)n([C@H]2C[C@H](O)[C@@H](CO)O2)cc1C#CCCCCCCCCCCl`, the MCC in assay [1] is 200 µM. The pEC50 in assay [2] was 5.44; in assay [3], 5.55; in assay [4], 5.00; in assay [5], 5.02. In assay [6], this molecule returned a CC50 of 74 µM.

As for `O=c1[nH]c(=O)n([C@H]2C[C@H](O)[C@@H](CO)O2)cc1C#CCCCCCCCCCI`, the MCC in assay [1] was more than 50 µM. The pEC50 in assay [2] is 4.89; in [3] it was 5.22; in assay [4], 4.44; in assay [5], 4.51. The molecule further showed a CC50 in assay [6] of 68 µM.

For the molecule `O=c1nc2oc(CCCCCCCCCCl)cc2cn1[C@H]1C[C@H](O)[C@@H](CO)O1`, the result in assay [7], in assay [8] and in assay [9] was inactive. This molecule also gave an MCC in assay [1] of more than 200 µM. Further, the pEC50 in assay [2] is 8.15; in assay [3], 7.92; in assay [4], 4.82; in assay [5], 4.89. Also, in assay [6], the CC50 came to 200 µM.

`O=c1nc2oc(CCCCCCCCCBr)cc2cn1[C@H]1C[C@H](O)[C@@H](CO)O1`: the MCC in assay [1] was more than 200 µM. The pEC50 in [2] was 7.59; in assay [3], 7.51; in assay [4], less than 4.30; in [5], 4.30. The result in assay [8], in assay [10] and in assay [11] was inactive. Moreover, the CC50 in [6] is more than 50 µM.

With `O=c1nc2oc(CCCCCCCCCF)cc2cn1[C@H]1C[C@H](O)[C@@H](CO)O1`, the result in assay [12], in assay [13], in [8] and in assay [14] was inactive. Moreover, the MCC in assay [1] is more than 50 µM. In addition, the pEC50 was 7.66 in [2], 7.85 in assay [3], less than 4.70 in assay [4] and less than 4.70 in assay [5]. Further, the CC50 in [6] was determined as 200 µM.

In the case of `CCCCCCCCCCc1cc2cn([C@H]3C[C@H](O)[C@@H](CO)O3)c(=O)nc2o1`, the MCC in assay [1] is more than 50 µM. The pEC50 in assay [4] and in assay [5] was less than 4.30 in each case. Further, the CC50 in assay [6] is more than 50 µM.

As for `O=c1nc2oc(CCCCCCCCCI)cc2cn1[C@H]1C[C@H](O)[C@@H](CO)O1`, the MCC in assay [1] came to 50 µM. Also, the pEC50 is 7.21 in assay [2], 7.47 in assay [3], less than 4.30 in assay [4] and less than 4.30 in [5]. The outcome in [8], in [10] and in assay [11] was inactive. The molecule further displayed a CC50 in [6] of more than 200 µM.

In assay [1], `O=c1[nH]c(=O)n([C@H]2C[C@H](O)[C@@H](CO)O2)cc1C#CCCCCCCCCCBr` yielded an MCC of 50 µM. The pEC50 in assay [2] is 5.96; in [3], 6.10; in [4], 4.80; in assay [5], 5.60. Besides, the CC50 in [6] is 97 µM.

In turn, `Nc1nc2c(ncn2COCCO)c(=O)[nH]1` [ACYCLOVIR] came in with an MCC in assay [1] of more than 200 µM. Moreover, the CC50 in [6] was more than 200 µM.

On to `O=c1[nH]c(=O)n([C@H]2C[C@H](O)[C@@H](CO)O2)cc1C#CCCCCCCCCCF`, for which the pEC50 was 4.48 in assay [15], 4.59 in [2], 4.66 in assay [3] and 4.64 in assay [5]. Further, the MCC in [1] was 200 µM. In addition, half-maximal cytotoxicity in assay [6] (CC50) was put at 116 µM.
